Source: patent US20240025863A1, “SOS1 PROTEIN DEGRADERS, PHARMACEUTICAL COMPOSITIONS THEREOF, AND THEIR THERAPEUTIC APPLICATIONS” (BioTheryX, Inc., priority 2020, published 2024)

Legend:
Type in all cases: cell-based
Lovo cells (G13D) = test: Cell viability assay (CellTiter-Glo), Lovo cells; conditions: Homo sapiens, 72 h; Lovo cells, 3 days incubation, CellTiter-Glo luminescence; read-out: Inhibition of Cancerous Cells IC50 Lovo (G13D)
Method in brief: (§1)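 Viability is measured by CellTiter-Glo luminescence following a 3-day compound incubation at 37 °C in medium with 2.5% FBS.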

SW480 cells (G12V) = test: Cell viability assay (CellTiter-Glo), SW480 cells; conditions: Homo sapiens, 72 h; SW480 cells, 3 days incubation, CellTiter-Glo luminescence; read-out: Inhibition of Cancerous Cells IC50 SW480 (G12V)
Method in brief: as §1

SW48 cells (wt) = test: Cell viability assay (CellTiter-Glo), SW48 cells; conditions: Homo sapiens, 72 h; SW48 cells, 3 days incubation, CellTiter-Glo luminescence; read-out: Inhibition of Cancerous Cells IC50 SW48 (wt)
Method in brief: as §1

AsPC-1 cells (G12D) = test: Cell viability assay (CellTiter-Glo), AsPC-1 cells; conditions: Homo sapiens, ASPC1, 72 h, 3 days incubation, CellTiter-Glo luminescence, read-out: Inhibition of Cancerous Cells IC50 AsPC-1 (G12D)
Protocol: H358, H23, SW48, and AsPC-1 cells were cultured in RPMI 1640 media supplemented with 10% fetal bovine serum, streptomycin, and penicillin. Lovo and SW480 cells were cultured in DMEM media supplemented with 10% fetal bovine serum, streptomycin, and penicillin. The cell lines were plated in their respective medium supplemented with 2.5% fetal bovine serum, streptomycin, and penicillin. All cell lines were plated in white walled 96-well plates at 2,000 cells/well or 384-well plates at 500 cells/well, except Lovo, which were plated at 4,000 or 1,000 cells/well, respectively. The cells were incubated in DMSO (control) or a compound for 3 days at 37° C. under 5% CO2. A CELLTITER-GLO® reagent (100 μL) was then added to each well. After a 10 min incubation with shaking, luminescence was measured using an ENVISION® multimode plate reader.

H358 cells (G12C) = test: Cell viability assay (CellTiter-Glo), H358 cells; conditions: Homo sapiens, NCI-H358, 72 h; H358 cells, 3 days incubation, CellTiter-Glo luminescence; read-out: Inhibition of Cancerous Cells IC50 H358 (G12C)
Method in brief: as §1

| Structure (SMILES) | IC50 (Lovo cells (G13D)) | IC50 (SW480 cells (G12V)) | IC50 (SW48 cells (wt)) | IC50 (AsPC-1 cells (G12D)) | IC50 (H358 cells (G12C)) |
| --- | --- | --- | --- | --- | --- |
| COc1cc2c(N[C@H](C)c3cc(N)cc(C(F)(F)F)c3)nc(C)nc2cc1OCCCCCCCN1CCC(c2cc3c(cc2F)C(=O)N(C2CCC(=O)NC2=O)C3)CC1 (stereo partly drawn) [Compound A28, 3-(5-(1-(7-((4-(((R)-1-(3-Amino-5-(trifluoromethyl)phenyl)ethyl)amino)-6-methoxy-2-methylquinazolin-7-yl)oxy)heptyl)piperidin-4-yl)-6-fluoro-1-oxoisoindolin-2-yl)-piperidine-2,6-dione] | 550 nM | 500 nM | 440 nM | 1100 nM | 1200 nM |
| COc1cc2c(N[C@H](C)c3cccc(Br)c3)nc(C)nc2cc1OCCCCN1CCN(C(=O)COc2cc3c(cc2F)C(=O)N(C2CCC(=O)NC2=O)C3)CC1 (stereo partly drawn) [Compound A29, 3-(5-(2-(4-(4-((4-(((R)-1-(3-Bromophenyl)ethyl)amino)-6-methoxy-2-methyl-quinazolin-7-yl)oxy)butyl)piperazin-1-yl)-2-oxoethoxy)-6-fluoro-1-oxoisoindolin-2-yl)-piperidine-2,6-dione] | 730 nM | 5700 nM | 890 nM | > 10000 nM | 6800 nM |
| COc1cc2c(N[C@H](C)c3cccc(Br)c3)nc(C)nc2cc1OCCCCN1CCN(C(=O)CNc2cc3c(cc2F)C(=O)N(C2CCC(=O)NC2=O)C3)CC1 (stereo partly drawn) [Compound A30, 3-(5-((2-(4-(4-((4-(((R)-1-(3-Bromophenyl)ethyl)amino)-6-methoxy-2-methyl-quinazolin-7-yl)oxy)butyl)piperazin-1-yl)-2-oxoethyl)amino)-6-fluoro-1-oxoisoindolin-2-yl)-piperidine-2,6-dione] | 40 nM | 3900 nM | 640 nM | 7800 nM | 4200 nM |
| COc1cc2c(N[C@H](C)c3cccc(Br)c3)nc(C)nc2cc1OCCCCCN1CCN(C(=O)CNc2cc3c(cc2F)C(=O)N(C2CCC(=O)NC2=O)C3)CC1 (stereo partly drawn) [Compound A32, 3-(5-((2-(4-(5-((4-(((R)-1-(3-Bromophenyl)ethyl)amino)-6-methoxy-2-methyl-quinazolin-7-yl)oxy)pentyl)piperazin-1-yl)-2-oxoethyl)amino)-6-fluoro-1-oxoisoindolin-2-yl)-piperidine-2,6-dione] | 60 nM | 4400 nM | 470 nM | > 10000 nM | > 10000 nM |
| COc1cc2c(N[C@H](C)c3cccc(Br)c3)nc(C)nc2cc1OCCCCCCN1CCN(CCCc2cc3c(cc2F)C(=O)N(C2CCC(=O)NC2=O)C3)CC1 (stereo partly drawn) [Compound A42, 3-(5-(3-(4-(6-((4-(((R)-1-(3-Bromophenyl)ethyl)amino)-6-methoxy-2-methyl-quinazolin-7-yl)oxy)hexyl)piperazin-1-yl)propyl)-6-fluoro-1-oxoisoindolin-2-yl)piperidine-2,6-dione] | 520 nM | 480 nM | 1000 nM | 1400 nM | 890 nM |
| COc1cc2c(N[C@H](C)c3cccc(Br)c3)nc(C)nc2cc1OCCCCCCN1CCN(CC#Cc2cc3c(cc2F)C(=O)N(C2CCC(=O)NC2=O)C3)CC1 (stereo partly drawn) [Compound A43, 3-(5-(3-(4-(6-((4-(((R)-1-(3-Bromophenyl)ethyl)amino)-6-methoxy-2-methyl-quinazolin-7-yl)oxy)hexyl)piperazin-1-yl)prop-1-yn-1-yl)-6-fluoro-1-oxoisoindolin-2-yl)-piperidine-2,6-dione] | 340 nM | 440 nM | 620 nM | 830 nM | 1300 nM |
| COc1cc2c(N[C@H](C)c3cccc(Br)c3)nc(C)nc2cc1OCCCN1CCC2(CC1)CCN(c1cc3c(cc1F)C(=O)N(C1CCC(=O)NC1=O)C3)CC2 (stereo partly drawn) [Compound A44, 3-(5-(9-(3-((4-(((R)-1-(3-Bromophenyl)ethyl)amino)-6-methoxy-2-methyl-quinazolin-7-yl)oxy)propyl)-3,9-diazaspiro[5.5]undecan-3-yl)-6-fluoro-1-oxoisoindolin-2-yl)piperidine-2,6-dione] | 530 nM | 440 nM | 610 nM | 980 nM | 1200 nM |
| COc1cc2c(N[C@H](C)c3cccc(Br)c3)nc(C)nc2cc1OCCCCCCCCCNc1cccc2nc(C)n(C3CCC(=O)NC3=O)c(=O)c12 (stereo partly drawn) [Compound A45, 3-(5-((9-((4-(((R)-1-(3-Bromophenyl)ethyl)amino)-6-methoxy-2-methyl-quinazolin-7-yl)oxy)nonyl)amino)-2-methyl-4-oxoquinazolin-3(4H)-yl)piperidine-2,6-dione] | 1200 nM | 900 nM | 2000 nM | 5200 nM | 2300 nM |
| COc1cc2c(N[C@H](C)c3cccc(Br)c3)nc(C)nc2cc1OCCCCCCCCCCCNc1cccc2nc(C)n(C3CCC(=O)NC3=O)c(=O)c12 (stereo partly drawn) [Compound A46, 3-(5-((11-((4-(((R)-1-(3-Bromophenyl)ethyl)amino)-6-methoxy-2-methyl-quinazolin-7-yl)oxy)undecyl)amino)-2-methyl-4-oxoquinazolin-3(4H)-yl)piperidine-2,6-dione] | 990 nM | 720 nM | 2700 nM | > 10000 nM | > 10000 nM |
| COc1cc2c(N[C@H](C)c3cccc(Br)c3)nc(C)nc2cc1OCCCCCCCNc1cccc2nc(C)n(C3CCC(=O)NC3=O)c(=O)c12 (stereo partly drawn) [Compound A47, 3-(5-((7-((4-(((R)-1-(3-Bromophenyl)ethyl)amino)-6-methoxy-2-methyl-quinazolin-7-yl)oxy)heptyl)amino)-2-methyl-4-oxoquinazolin-3(4H)-yl)piperidine-2,6-dione] | 910 nM | 740 nM | 1400 nM | 3700 nM | 3000 nM |

Now from value to compound:

| IC50 (Lovo cells (G13D)) | IC50 (SW480 cells (G12V)) | IC50 (SW48 cells (wt)) | IC50 (AsPC-1 cells (G12D)) | IC50 (H358 cells (G12C)) | Structure (SMILES) |
| --- | --- | --- | --- | --- | --- |
| 6400 nM | 1300 nM | 7900 nM |  | 1600 nM | COc1cc2c(N[C@H](C)c3cccc(Br)c3)nc(C)nc2cc1OCCCCCCC(=O)N[C@H](C(=O)N1C[C@H](O)C[C@H]1C(=O)NCc1ccc(-c2scnc2C)cc1)C(C)(C)C [Compound D1, (2S,4R)-1-((S)-2-(7-((4-(((R)-1-(3-Bromophenyl)ethyl)amino)-6-methoxy-2-methylquinazolin-7-yl)oxy)heptanamido)-3,3-dimethylbutanoyl)-4-hydroxy-N-(4-(4-methyl-thiazol-5-yl)benzyl)pyrrolidine-2-carboxamide] |
| > 10000 nM | > 10000 nM | > 10000 nM |  | > 10000 nM | COc1cc2c(N[C@H](C)c3cccc(Br)c3)nc(C)nc2cc1OCCCCCCCCCCC(=O)N[C@H](C(=O)N1C[C@H](O)C[C@H]1C(=O)NCc1ccc(-c2scnc2C)cc1)C(C)(C)C [Compound D3, (2S,4R)-1-((S)-2-(11-((4-(((R)-1-(3-Bromophenyl)ethyl)amino)-6-methoxy-2-methylquinazolin-7-yl)oxy)undecanamido)-3,3-dimethylbutanoyl)-4-hydroxy-N-(4-(4-methyl-thiazol-5-yl)benzyl)pyrrolidine-2-carboxamide] |
| > 10000 nM | 2700 nM | > 10000 nM |  | > 10000 nM | COc1cc2c(N[C@H](C)c3cccc(Br)c3)nc(C)nc2cc1OCCCCCCCCCCCCC(=O)N[C@H](C(=O)N1C[C@H](O)C[C@H]1C(=O)NCc1ccc(-c2scnc2C)cc1)C(C)(C)C [Compound D4, (2S,4R)-1-((S)-2-(13-((4-(((R)-1-(3-Bromophenyl)ethyl)amino)-6-methoxy-2-methylquinazolin-7-yl)oxy)tridecanamido)-3,3-dimethylbutanoyl)-4-hydroxy-N-(4-(4-methylthiazol-5-yl)benzyl)pyrrolidine-2-carboxamide] |
| 3100 nM | 3500 nM | 5400 nM |  | 4300 nM | COc1cc2c(N[C@H](C)c3cccc(Br)c3)nc(C)nc2cc1OCCCCCCCCCOc1cc(-c2scnc2C)ccc1CNC(=O)[C@@H]1C[C@@H](O)CN1C(=O)[C@@H](NC(C)=O)C(C)(C)C [Compound D12, (2S,4R)-1-((S)-2-acetamido-3,3-dimethylbutanoyl)-N-(2-((9-((4-(((R)-1-(3-bromophenyl)ethyl)amino)-6-methoxy-2-methylquinazolin-7-yl)oxy)nonyl)oxy)-4-(4-methylthiazol-5-yl)benzyl)-4-hydroxypyrrolidine-2-carboxamide] |
| 1600 nM | 2900 nM | > 10000 nM |  | > 10000 nM | COc1cc2c(N[C@H](C)c3cccc(Br)c3)nc(C)nc2cc1OCCCCCCCCCCCOc1cc(-c2scnc2C)ccc1CNC(=O)[C@@H]1C[C@@H](O)CN1C(=O)[C@@H](NC(C)=O)C(C)(C)C [Compound D13, (2S,4R)-1-((S)-2-Acetamido-3,3-dimethylbutanoyl)-N-(2-((11-((4-(((R)-1-(3-bromophenyl)ethyl)amino)-6-methoxy-2-methylquinazolin-7-yl)oxy)undecyl)oxy)-4-(4-methylthiazol-5-yl)benzyl)-4-hydroxypyrrolidine-2-carboxamide] |
